Reference: US20250019652A1, “PRODUCTION METHOD FOR SHEET-LIKE RETINAL TISSUE” (RIKEN, priority 2021, published 2025)

Tests used:
Type in all cases: cell-based, human
[1] = tested on: Rx::Venus-sorted cells (KhES-1-derived NR, Day 25); assay: Search of factor that maintains property of retina at preparation into sheet again (Example 18); details: compared with PBS control; 10 days after seeding
Description: The aggregates (NR) of Day 25 from initiation of the suspension culture prepared in Example 1 were washed with PBS, and a neuronal cell dispersion solution (manufactured by FUJIFILM Wako Pure Chemical Corp.) was added. After incubation at 37° C., they were dispersed into single cells by pipetting, and sorting was carried out with Rx::Venus as an index using Cell sorter ARIAII (Becton, Dickinson and Company).
3 days after seeding, the medium was similarly replaced so as to maintain the concentrations of the low-molecular compounds or the proteins described in Tables 1 and 2. […] 10 days after seeding, fixation was performed in 4% PFA, and the evaluation of the cells after sorting was conducted with Rx::Venus as an index under a fluorescence microscope (BZ-X810 manufactured by Keyence Corp.).

[2] = tested on: aggregates (NR), KhES-1-derived neural retinal tissues; assay: Study on enhancement in CD39 expression, FACS (Example 25); details: added Day 17 to Day 25; DMSO control
Description: For aggregates (NR) prepared by adding 300 nM SAG at the start of differentiation (dd0), 10 neural retinal tissues were transferred to low adhesive 60-mm Petri dish for suspension culture (manufactured by Sumitomo Bakelite Co., Ltd.) on Day 17 from initiation of the suspension culture. 1 mM or 0.2 mM adenosine (A2A receptor agonist, manufactured by Sigma-Aldrich Co. LLC), 1 mM, 0.2 mM, or 0.04 mM AMP-PNP (manufactured by Tocris Bioscience), 5 mM, 1 mM, 0.2 mM, or 0.04 mM ATP disodium salt (manufactured by Tocris Bioscience), and 1μ, 0.2μ, or 0.04μ M CGS 21680 (Adenosine A2A Receptor Agonist, manufactured by Tocris Bioscience) were added into 4 mL of NucT0 medium. Culture was performed up to Day 25 from initiation of the suspension culture. Change in expression of CD39 and CXCR4 was stained using Mouse IgG1-APC conjugate antibody (Miltenyi Biotec), anti-CD39-BV421 conjugate antibody (BD Biosciences) and anti-CXCR4-APC conjugate antibody (Miltenyi Biotec) and measured using FACSCantoII (BD Biosciences), and analysis was conducted using FlowJo. As a control, a DMSO addition group was established.

[3] = tested on: Rx::Venus-positive cells (KhES-1-derived); assay: Maintenance culture of retinal cell in Rx::Venus strain (Example 13); details: 20 ng/ml continuously added; after 34 days
Description: The aggregates of Day 31 from initiation of the suspension culture prepared as in Example 1 were washed with PBS, and a neuronal cell dispersion solution (manufactured by FUJIFILM Wako Pure Chemical Corp.) was added. After incubation at 37° C., they were dispersed into single cells by pipetting.
After 34 days, cell sheets were fixed in 4% PFA, and the nuclei were stained using DAPI. Observation was made focusing on the areas of Rx::Venus-positive cells, and the state of maintenance of retinal cells was studied.

[4] = tested on: single cells dispersed from KhES-1- and 1231A3-derived aggregates; assay: Aggregate proliferation-promoting factor: aggregate area in suspension culture with Y-27632 (Example 2); details: SAG 300 nM or CHIR99021 3 μM in addition to 10 μM Y-27632; Day 1, 7, 14
Description: The aggregates of Day 20 (1231A3) and Day 27 (KhES-1) from initiation of the suspension culture prepared as in Example 1 were washed with PBS, and a neuronal cell dispersion solution (manufactured by FUJIFILM Wako Pure Chemical Corp.) was added. After incubation at 37° C., they were dispersed into single cells by pipetting. These cells were suspended in 100 μL of a serum-free medium containing 10 μM Y-27632 (FUJIFILM Wako Pure Chemical Corp.) so as to become 2 to 5×10^5 cells per well of a non-cell adhesive 96-well culture plate (trade name: PrimeSurface 96-well V-bottom plate, manufactured by Sumitomo Bakelite Co., Ltd.), and suspension-cultured at 37° C. and 5% CO2. […] The reformed states of the aggregates were observed under a bright field microscope and a fluorescence microscope (BZ-X810 manufactured by Keyence Corp.) on Day 1, Day 7, and Day 14 after suspension culture for aggregate reforming. The areas of the aggregates were measured in Image J. The results of the KhES-1-derived cells are shown in FIG. 6 (an average value from 12 […] measured). The results of the 1231A3-derived cells in which the reformed states of the aggregates of Day 1 after suspension culture were observed are shown in FIG. 7.

[5] = tested on: single cell suspension of dispersed retinal cells (KhES-1-derived); assay: Layer structure formation-promoting factor: reformed aggregates, immunostained sections (Example 3); details: 300 nM SAG in addition to 3 μM CHIR99021
Description: The aggregates of Day 26 from initiation of the suspension culture prepared as in Example 1 were washed with PBS, and a neuronal cell dispersion solution (manufactured by FUJIFILM Wako Pure Chemical Corp.) was added. After incubation at 37° C., they were dispersed into single cells by pipetting. These cells were suspended in 100 μL of a serum-free medium so as to become 3.0×10^4 cells per well of a non-cell adhesive 96-well culture plate (trade name: PrimeSurface 96-well V-bottom plate, manufactured by Sumitomo Bakelite Co., Ltd.), and suspension-cultured at 37° C. and 5% CO2.
The aggregates of Day 15 (corresponding to Differentiation Day 41) and Day 28 (corresponding to Differentiation Day 54) after suspension culture for aggregate reforming were fixed in 4% PFA, and frozen sections were prepared. These frozen sections were subjected to immunostaining using DAPI and anti-Chx10 antibody (trade name: Anti CHX10 Antibody, Exalpha Biologicals Inc.), anti-β-catenin antibody (R&D Systems, Inc.), anti-collagen IV antibody (Abcam plc), anti-Zo-1 antibody (Invitrogen Corp.), anti-Ki67 antibody (Becton, Dickinson and Company), anti-Pax6 antibody (BioLegend, Inc.), anti-RxR-γ (RxRg) antibody (Spring Bioscience Corp.), anti-CRX antibody (Abnova Corp.), anti-NRL antibody (R&D Systems, Inc.), anti-recoverin antibody (manufactured by Proteintech Group, Inc.), anti-Islet-1 antibody (Developmental Studies Hybridoma Bank (DSHB)), anti-GS antibody (Sigma-Aldrich Co., LLC), anti-Brn3 antibody (Santa Cruz Biotechnology), and anti-calretinin antibody (R&D Systems, Inc.).
These immunostained sections were observed under a bright field microscope and a fluorescence microscope (BZ-X810 manufactured by Keyence Corp.) and a confocal laser scanning fluorescence microscope (SP-8 manufactured by Leica), and the results are shown in FIGS. 11 to 20. […] From FIGS. 19 and 20, it was confirmed that RxR-Y(RxRg)-positive and CRX-positive cone progenitor cells and recoverin-positive and CRX-positive photoreceptor progenitor cells were differentiated, and the differentiation of Islet-1-positive and Brn3-positive retinal ganglion cells and calretinin-positive amacrine cells was also confirmed.

[6] = tested on: KhES-1 Rx::Venus aggregates (NR) of Day 26; assay: CD39 expression analysis with different concentrations of SAG at start of differentiation (Example 24)
Description: The morphology of aggregates (NR) of Day 26 from initiation of the suspension culture prepared by adding (1) 0 nM, (2) 30 nM, or (3) 300 nM SAG at the start of differentiation was observed under a microscope.
The aggregates were dispersed into single cells using a neuronal cell dispersion solution, and FACS analysis was conducted as to the expression of CD39 and CXCR4 using anti-CD39-APC conjugate antibody (Miltenyi Biotec) and anti-CXCR4-APC conjugate antibody (Miltenyi Biotec). The percentage of an expressing cell population was measured using FACSCantoII (BD Biosciences), and analysis was conducted using FlowJo. These aggregates were fixed in 4% PFA, and sections were prepared and then subjected to staining using anti-ALDH1A1 antibody (R&D Systems, Inc.), anti-CoupTF1 antibody (Perseus Proteomics Inc. (PPMX)), anti-LHX2 antibody (manufactured by Merck Millipore), anti-Chx10 antibody (manufactured by Exalpha Biologicals Inc.), anti-Pax2 antibody (manufactured by Covance), and anti-NKX2.1 antibody (manufactured by Leica).

[7] = tested on: retinal progenitor cells dispersed into single cells (KhES-1- and 1231A3-derived aggregates); assay: Search of aggregate reforming factor: suspension culture of dispersed retinal cells (Example 1); details: added at cell seeding; Y-27632 10 μM or 20 μM; Day 1 to Day 2 of suspension culture
Description: Human ES cells (KhES-1 strain (Non Patent Literature 3)) and human iPS cells (1231A3 strain, Kyoto University) genetically engineered so as to have Rx::Venus reporter gene were cultured under feeder-free conditions in accordance with the method described in “Scientific Reports, 4, 3594 (2014)”. As a feeder-free medium, StemFit medium (trade name: AK03N, manufactured by Ajinomoto Co., Inc.) was used, and as a scaffold as an alternative to feeder cells, Laminin511-E8 (trade name, manufactured by Nippi, Inc.) was used.
Specific operation of maintenance culture for human ES and human iPS cells (human ES/iPS cells) was performed as follows: First, human ES/iPS cells that reached sub-confluency (state where about 60% of the culture area was covered by cells) were washed with PBS and separated into single cells by use of TrypLE Select (trade name, manufactured by Life Technologies). In this context, the dispersion into single cells refers to performing dispersion so as to become single cells, and a cell population dispersed into single cells is capable of containing a mass of 2 to 50 cells, in addition to single cells. Then, the separated human ES single cells were seeded in plastic culture dishes coated with Laminin 511-E8 and cultured under feeder-free conditions in StemFit medium in the presence of Y-27632 (ROCK inhibitor, 10 μM). […]

O=C(Nc1cccc2cccnc12)c1ccc(N2C(=O)[C@@H]3[C@H](C2=O)[C@@H]2C=C[C@H]3C2)cc1 [IWR1 endo, 4-[(3aR,4S,7R,7aS)-1,3,3a,4,7,7a-hexahydro-1,3-dioxo-4,7-methano-2H-isoindol-2-yl]-N-8-quinolinyl-benzamide, reference compound]
expression intensity of Rx::Venus [1]: high expression intensity of Rx::Venus

Nc1ncnc2c1ncn2[C@@H]1O[C@H](COP(=O)(O)OP(=O)([O-])OP(=O)([O-])O)[C@@H](O)[C@H]1O.[Na+].[Na+] [ATP]
expression of CD39 (FACS) [2]: enhancing the expression of CD39
expression of CXCR4 (FACS) [2]: decreasing the expression of CXCR4

EGF: growth factor added at 20 ng/ml
maintenance of Rx::Venus-positive cells [3]: Rx::Venus-positive cells were widely maintained

CNC1CCC(N(Cc2cccc(-c3ccncc3)c2)C(=O)c2sc3ccccc3c2Cl)CC1 (centres unmarked) [SAG]
size of reformed aggregates versus only Y-27632 [4]: larger aggregates were reformed
size of aggregates [5]: aggregates were larger
morphology of aggregates ([6]; 0 nM and 30 nM SAG compared with 300 nM SAG at dd0, Day 26): aggregates were larger and a layer structure was clearer
expression of CD39 (FACS) ([6]; 300 nM SAG at dd0): CD39 was expressed
expression of CXCR4 (FACS) ([6]; 300 nM SAG at dd0): low expression of CXCR4 was observed
expression of dorsal marker ALDH1A1 ([6]; addition of SAG on dd0): Decrease in expression of a dorsal marker ALDH1A1
expression of ventral marker CoupTF1 ([6]; addition of SAG on dd0): increase in expression of a ventral marker CoupTF1

FGF2: fibroblast growth factor, FGF signaling pathway agonist
maintenance of Rx::Venus-positive cells [3]: Rx::Venus-positive cells were widely maintained
expression intensity of Rx::Venus [1]: high expression intensity of Rx::Venus

C[C@@H](N)[C@H]1CC[C@H](C(=O)Nc2ccncc2)CC1 [Y-27632]
early aggregate reforming [7]: aggregates were reformed from Day 1 to Day 2
